Measurements from patent publication US9751869B2, “LXR modulators” (BRISTOL-MYERS SQUIBB COMPANY, priority 2013, dated 2017).

Biological target: T1, LXRβ (Homo sapiens, UniProt P55055)
T1 construct: Co-transfection expression plasmids, comprising full-length LXRα (pCMX-h LXRα or LXRβ (pCMX-hLXRβ)); expressed in transfected cells; host or cells: CV-1 African green monkey kidney cells, transient transfection with pCMX-hLXRβ
T1 sequence (P55055 1-460): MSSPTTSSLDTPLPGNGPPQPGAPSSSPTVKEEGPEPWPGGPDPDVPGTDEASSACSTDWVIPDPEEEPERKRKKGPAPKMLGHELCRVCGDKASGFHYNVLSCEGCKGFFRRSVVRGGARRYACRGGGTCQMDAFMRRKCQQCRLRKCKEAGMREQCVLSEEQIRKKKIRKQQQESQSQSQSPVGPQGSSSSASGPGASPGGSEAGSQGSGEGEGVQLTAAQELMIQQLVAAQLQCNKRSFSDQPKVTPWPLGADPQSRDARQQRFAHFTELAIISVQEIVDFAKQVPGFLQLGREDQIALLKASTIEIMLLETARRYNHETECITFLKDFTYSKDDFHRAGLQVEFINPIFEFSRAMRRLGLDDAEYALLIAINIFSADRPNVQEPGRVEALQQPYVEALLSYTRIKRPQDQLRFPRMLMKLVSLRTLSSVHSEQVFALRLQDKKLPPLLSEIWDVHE
T1 sequence (P19793 1-462 partner): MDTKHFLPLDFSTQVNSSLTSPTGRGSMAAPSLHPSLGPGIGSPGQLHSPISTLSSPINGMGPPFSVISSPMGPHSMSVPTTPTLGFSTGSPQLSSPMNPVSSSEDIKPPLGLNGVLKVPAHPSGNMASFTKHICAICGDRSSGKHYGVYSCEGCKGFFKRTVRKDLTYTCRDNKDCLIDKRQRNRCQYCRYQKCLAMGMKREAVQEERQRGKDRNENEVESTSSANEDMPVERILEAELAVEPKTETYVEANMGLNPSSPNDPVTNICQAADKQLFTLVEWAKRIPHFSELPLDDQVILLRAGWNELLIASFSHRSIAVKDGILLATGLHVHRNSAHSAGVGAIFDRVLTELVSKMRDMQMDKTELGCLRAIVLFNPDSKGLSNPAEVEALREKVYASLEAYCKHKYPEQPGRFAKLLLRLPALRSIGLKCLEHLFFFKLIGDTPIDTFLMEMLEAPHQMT
Assay: LXR/LXRE co-transfection assay (luciferase reporter) in CV-1 cells, LXRβ
Type: cell-based
Settings: for EC50: CV-1 cells transfected with pCMX-hLXRβ and LXREx1-Tk-Luciferase, 20 hours incubation, read-out: LXRbeta agonism EC50; for Emax: CV-1 cells, relative to maximum response of high control N-(3-((4-fluorophenyl)-(naphthalene-2-sulfonyl)amino)propyl)-2,2-dimethylpropionamide, read-out: LXRbeta % EFFICACY
In short: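 Luciferase read-out after 20 h compound treatment at 37 °C of CV-1 cells carrying transfected hLXRβ plus one-copy LXRE reporter, endogenous RXR partnering. Sigmoidal fit of 10-point half-log curves (4 wells each) gave EC50; % efficacy versus maximal response of the propionamide reference agonist.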

SMILES	EC50 [nM]	Emax [%]
CNS(=O)(=O)c1cccc(-c2ccc(-c3cc(C(C)(F)F)nn3C)c(-n3nncc3-c3ccc(OC(F)(F)F)cc3)c2)c1 [Example 20, 4′-[3-(1,1-difluoroethyl)-1-methyl-1H-pyrazol-5-yl]-N-methyl-3′-(5-{4-[(trifluoromethyl)oxy]phenyl}-1H-1,2,3-triazol-1-yl)biphenyl-3-sulfonamide]	38	86
Cc1nc(-c2ccc3c(c2)OC(F)(F)O3)c(-c2cc(-c3cc(F)c(CO)c(S(C)(=O)=O)c3)ccc2-c2cc(C#N)nn2C)o1 [Example 122, 5-(3-(4-(2,2-difluorobenzo[d][1,3]dioxol-5-yl)-2-methyloxazol-5-yl)-3′-fluoro-4′-(hydroxymethyl)-5′-(methylsulfonyl)-[1,1′-biphenyl]-4-yl)-1-methyl-1H-pyrazole-3-carbonitrile]	63	22
Cc1nc(-c2ccc3c(c2)OC(F)(F)O3)c(-c2cc(-c3cc(F)c(CO)c(S(C)(=O)=O)c3)ccc2-c2cc(C(F)(F)C(=O)O)nn2C)o1 [Example 75, 2-(5-(3-(4-(2,2-difluorobenzo[d][1,3]dioxol-5-yl)-2-methyloxazol-5-yl)-3′-fluoro-4′-(hydroxymethyl)-5′-(methylsulfonyl)biphenyl-4-yl)-1-methyl-1H-pyrazol-3-yl)-2,2-difluoroacetic acid]	7670	52
CS(=O)(=O)c1cc(-c2ccc(-n3ccc(C(F)(F)F)n3)c(-c3nc(C4CC4)oc3-c3ccc(OC(F)(F)F)cc3)c2)cc(F)c1CO [Example 402, (3′-(2-cyclopropyl-5-(4-(trifluoromethoxy)phenyl)oxazol-4-yl)-3-fluoro-5-(methylsulfonyl)-4′-(3-(trifluoromethyl)-1H-pyrazol-1-yl)biphenyl-4-yl)methanol]	14	67
Cc1nc(-c2ccc3c(c2)OC(F)(F)O3)c(-c2cc(-c3cccc(S(C)(=O)=O)c3)ccc2-c2cc(C(C)(C)C(N)=O)nn2C)o1 [Example 96, 2-(5-(3-(4-(2,2-difluorobenzo[d][1,3]dioxol-5-yl)-2-methyloxazol-5-yl)-3′-(methylsulfonyl)biphenyl-4-yl)-1-methyl-1H-pyrazol-3-yl)-2-methylpropanamide]	126	61
Cn1nc(C(F)(F)C(N)=O)cc1-c1ccc(-c2cccc(S(C)(=O)=O)c2)cc1-n1nncc1-c1ccc(Cl)cc1Cl [Example 32, 2-(5-(3-(5-(2,4-dichlorophenyl)-1H-1,2,3-triazol-1-yl)-3′-(methylsulfonyl)-[1,1′-biphenyl]-4-yl)-1-methyl-1H-pyrazol-3-yl)-2,2-difluoroacetamide]	1760	43
Cc1nc(-c2ccc3c(c2)OC(F)(F)O3)c(-c2cc(-c3cc(F)c(CO)c(S(C)(=O)=O)c3)ccc2-c2cc(C(F)(F)c3nnco3)nn2C)o1 [Example 51, (4′-(3-(difluoro(1,3,4-oxadiazol-2-yl)methyl)-1-methyl-1H-pyrazol-5-yl)-3′-(4-(2,2-difluorobenzo[d][1,3]dioxol-5-yl)-2-methyloxazol-5-yl)-3-fluoro-5-(methylsulfonyl)biphenyl-4-yl)methanol]	7	73
Cc1nc(-c2ccc3c(c2)OC(F)(F)O3)c(-c2cc(-c3cc(F)c(CO)c(S(C)(=O)=O)c3)ccc2-c2cc(C(=O)NCC3CC3)nn2C)o1 [Example 110, N-(cyclopropylmethyl)-5-(3-(4-(2,2-difluorobenzo[d][1,3]dioxol-5-yl)-2-methyloxazol-5-yl)-3′-fluoro-4′-(hydroxymethyl)-5′-(methylsulfonyl)-[1,1′-biphenyl]-4-yl)-1-methyl-1H-pyrazole-3-carboxamide]	244	55
COc1ncc(-c2oc(C)nc2-c2cc(-c3cccc(S(C)(=O)=O)c3)ccc2-n2ccc(C(F)(F)F)n2)cc1F [Example 407, 5-(5-fluoro-6-methoxypyridin-3-yl)-2-methyl-4-(3′-(methylsulfonyl)-4-(3-(trifluoromethyl)-1H-pyrazol-1-yl)biphenyl-3-yl)oxazole]	67	91
Cc1nc(-c2ccc3c(c2)OC(F)(F)O3)c(-c2cc(-c3cc(F)c(CO)c(S(C)(=O)=O)c3)ccc2-c2cc(C(C)(F)F)nn2C)o1 [Example 95, (3′-(4-(2,2-difluorobenzo[d][1,3]dioxol-5-yl)-2-methyloxazol-5-yl)-4′-(3-(1,1-difluoroethyl)-1-methyl-1H-pyrazol-5-yl)-3-fluoro-5-(methylsulfonyl)biphenyl-4-yl)methanol]	19	65

Continued, values first:

EC50 [nM]	Emax [%]	SMILES
149	74	Cc1nc(-c2ccc(OC(F)(F)F)cc2)c(-c2cc(-c3cccc(C(C)(C)C(N)=O)c3)ccc2-n2ccc(C(F)(F)F)n2)o1 [Example 343, 2-methyl-2-(3′-(2-methyl-4-(4-(trifluoromethoxy)phenyl)oxazol-5-yl)-4′-(3-(trifluoromethyl)-1H-pyrazol-1-yl)biphenyl-3-yl) propanamide]
73	75	Cc1nc(-c2ccc(OC(F)(F)F)cc2)c(-c2cc(-c3cccc(S(C)(=O)=O)c3)ccc2-n2nc(C(F)(F)F)cc2Cl)o1 [Example 345, 5-(4-(5-chloro-3-(trifluoromethyl)-1H-pyrazol-1-yl)-3′-(methylsulfonyl)biphenyl-3-yl)-2-methyl-4-(4-(trifluoromethoxy)phenyl)oxazole]
1440	40	Cc1nc(-c2ccc(OC(F)(F)F)cc2)c(-c2cc(-c3cccc(S(C)(=O)=O)c3)ccc2-n2ccc(CO)n2)o1 [Example 321, (1-(3-(2-methyl-4-(4-(trifluoromethoxy)phenyl)oxazol-5-yl)-3′-(methylsulfonyl)biphenyl-4-yl)-1H-pyrazol-3-yl)methanol]
120	68	Cc1nc(-c2ccc(OC(F)(F)F)cc2)c(-c2cc(-c3cccc(S(C)(=O)=O)c3)ccc2-n2ccc(C(F)(F)F)n2)o1 [Example 309, 2-methyl-5-(3′-(methylsulfonyl)-4-(3-(trifluoromethyl)-1H-pyrazol-1-yl)-[1,1′-biphenyl]-3-yl)-4-(4-(trifluoromethoxy)phenyl)oxazole]
16	97	Cc1nc(-c2cc(-c3cccc(S(C)(=O)=O)c3)ccc2-n2ccc(C(F)(F)F)n2)c(-c2ccc(OC(F)F)nc2)o1 [Example 394, 5-(6-(difluoromethoxy)pyridin-3-yl)-2-methyl-4-(3′-(methylsulfonyl)-4-(3-(trifluoromethyl)-1H-pyrazol-1-yl)biphenyl-3-yl)oxazole]
27	78	Cc1nc(-c2ccc(OC(F)F)cc2)c(-c2cc(-c3cccc(S(C)(=O)=O)c3)ccc2-n2nc(C(F)(F)F)cc2C)o1 [Example 327, 4-(4-(difluoromethoxy)phenyl)-2-methyl-5-(4-(5-methyl-3-(trifluoromethyl)-1H-pyrazol-1-yl)-3′-(methylsulfonyl)biphenyl-3-yl)oxazole]
116	72	Cc1nc(-c2ccc(Cl)cc2)c(-c2cc(-c3cccc(S(C)(=O)=O)c3)ccc2-n2ccc(C(F)(F)F)n2)o1 [Example 344, 4-(4-chlorophenyl)-2-methyl-5-(3′-(methylsulfonyl)-4-(3-(trifluoromethyl)-1H-pyrazol-1-yl)biphenyl-3-yl)oxazole]
131	76	Cc1nc(-c2cc(-c3cccc(S(C)(=O)=O)c3)ccc2-n2ccc(C(F)(F)F)n2)c(-c2ccc(Cl)cc2)o1 [Example 401, 5-(4-chlorophenyl)-2-methyl-4-(3′-(methylsulfonyl)-4-(3-(trifluoromethyl)-1H-pyrazol-1-yl)biphenyl-3-yl)oxazole]
50	83	Cc1nc(-c2ccc(OC(F)F)c(F)c2)c(-c2cc(-c3cccc(S(C)(=O)=O)c3)ccc2-n2cc(Cl)c(C(F)(F)F)n2)o1 [Example 433]
29	71	Cc1nc(-c2ccc(OC(F)(F)F)cc2)c(-c2cc(-c3cc(F)c(CO)c(S(C)(=O)=O)c3)ccc2-n2ccc(C(F)(F)F)n2)o1 [Example 335, (3-fluoro-3′-(2-methyl-4-(4-(trifluoromethoxy)phenyl)oxazol-5-yl)-5-(methylsulfonyl)-4′-(3-(trifluoromethyl)-1H-pyrazol-1-yl)biphenyl-4-yl)methanol]
